Test results taken from patent US10874600B2, “Method for degrading bilirubin in skin” (The Procter & Gamble Company, priority 2018, dated 2020).

Assay: Bilirubin degradation assay
Type: biochemical
Conditions: for Avg. IB at pH 3.8 / Avg. IB at pH 7.4: 25 μg/mL IB, 24-hr incubation at room temperature, average of triplicate; for Δ IB (actual): pH 3.8 vs reference value (pH 7.4, 0% niacinamide leg); for Δ IB (predicted): predicted additive effect of niacinamide at pH 7.4 plus observed pH effect 2.323
Description: The bilirubin degradation assay provides an in vitro method of determining how a material or composition affects bilirubin degradation. Three replicates of each test sample are prepared in a 96-well plate (e.g., a FALCON brand 96-well tissue culture plate or equivalent) at a total volume of 250 μl/well. A stock of 250 ug/ml indirect bilirubin (i.e., the unconjugated form of bilirubin most commonly found in blood serum) is made by dissolving bilirubin powder (Cayman Chemicals Company, Catalog #17161) in DMSO (Sigma, Catalog # D8414-100 ml) to yield a stock solution at 10× working concentration. Working concentration of bilirubin is set at 25 ug/ml for every well except negative/vehicle control wells. […] The positive control wells may be prepared by mixing 25 ul of 250 ug/ml bilirubin stock solution and 225 ul PBS (AccuGENE, Catalog #51225). For negative/vehicle control wells, 25 ul DMSO is used in place of bilirubin. Test sample wells contain 25 ul of 250 ug/ml bilirubin stock solution, 200 ul PBS and 25 ul of each treatment solution made as 10× concentrate stock, e.g., for 0.1% Niacinamide treatment, a 10× concentrate stock is made at 1%.
The pH of each sample is adjusted using 1M HCl pH titration is performed separately before the experiment set up to determine how much 1M HCl is needed for each leg to achieve targeting pH level. 1500 ul of a master working solution of each testing leg was made without bilirubin to accommodate threshold volume need for pH adjustment. The master solution for the vehicle control wells contain 150 ul DMSO and 1350 ul of a mixture of 1M HCl and PBS. […] Bilirubin is unstable when exposed to ambient light. Thus, for bilirubin positive control well pre-titration, DMSO was used as surrogate for bilirubin. […] For pre-titration test sample wells, 1500 ul of master solution is made by mixing 150 ul DMSO (surrogate for bilirubin stock), 150 ul 10× treatment stock, and a 1200 ul mixture of 1M HCl and PBS. For actual experimental set up, make: 1350 ul pre-mix in triplicate for each leg, less either DMSO (for vehicle control leg) or bilirubin (for positive control and treatment legs) but with matching volume of all other ingredients as determined by pre-titration. Then for vehicle control leg, add 25 ul DMSO per well followed by adding in 225 ul of the pre-mix. For all other legs, add 25 ul of 250 ug/ml bilirubin stock made in DMSO per well followed by adding in 225 ul of corresponding pre-mix. […] The plate(s) containing the test samples are covered with aluminum foil and placed on top of a microplate shaker (VWR, Catalog #12620-938). Incubation was carried out at room temperature for 24-hr with constant shaking at 150 rpm. […] Commercially available bilirubin quantification kit (Cell Biolab, Catalog # MET-5010) was used for bilirubin quantification. The assay is based on the Jendrassik-Grof method in which diazotized sulfanilic acid reacts with bilirubin to form azobilirubin, the latter of which can be detected at an OD of 540 nm. A standard bilirubin curve is generated using the same bilirubin used for treatment and quantified.
Bilirubin concentrations of all testing legs are calculated using linear regression against the standard bilirubin curve. Resulting bilirubin concentrations are compared to neutral pH bilirubin reference leg. The difference in bilirubin quantification (A bilirubin) between the neutral-pH bilirubin reference leg and the low-pH niacinamide treated legs can be analyzed for predicted effect and actual effect.
The effect of niacinamide level on bilirubin degradation was tested at 0.1%, 0.5%, and 3%, by weight, based on the volume of the composition (w/v). A vehicle control is used in this Example as the negative control.

## NC(=O)c1cccnc1 [niacinamide]
0.1% (w/v) niacinamide
  Avg. IB at pH 3.8: 17.713 μg/mL
  Avg. IB at pH 7.4: 20.851 μg/mL
  Δ IB (actual): 3.405
  Δ IB (predicted): 2.590
0.5% (w/v) niacinamide
  Avg. IB at pH 3.8: 14.231 μg/mL
  Avg. IB at pH 7.4: 20.185 μg/mL
  Δ IB (actual): 6.887
  Δ IB (predicted): 3.256
3% (w/v) niacinamide
  Avg. IB at pH 3.8: 9.585 μg/mL
  Avg. IB at pH 7.4: 17.087 μg/mL
  Δ IB (actual): 11.533
  Δ IB (predicted): 6.354
Niacinamide in low-pH composition vs observed individual effects of pH and niacinamide level
  reduction in bilirubin in the low-pH composition compared with predicted: much higher level than predicted
